Laboratory results published in patent publication US12077501B2, “Compounds and compositions for intracellular delivery of agents” (ModernaTX, Inc., priority 2017, dated 2024).

Key:
hEPO expression = hEPO expression in CD-1 mice compared with MC3; type: in vivo; details: intravenous, 0.5 mpk, Table 7e
Text: In contrast, hEPO expression in rats induced by administration of a nanoparticle composition including a compound according to one of formulae (I), (Ia1)-(Ia6), (Ib), (II), (IIa), (III), and (IIIa) was substantially […] than that measured for MC3. […] Tables 7c and 7d show additional protein expressions and clearance data from compositions with various compounds disclosed herein as compared to with MC3. Tables 7e, 7f and 7g show hEPO expression data in CD-1 mice at a dose of 0.5 mpk.

[1] = Encapsulation efficiency of RNA (QUANT-IT RIBOGREEN RNA assay); type: physicochemical; details: Table 1c; nanoparticle compositions
How it was run: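 RiboGreen fluorescence (ex about 480, em about 520 nm) compares nanoparticle samples left intact versus disrupted with 2% Triton X-100 (15 min, 37° C). Samples are first brought to roughly 5 μg/mL in 10 mM Tris-HCl, 1 mM EDTA, pH 7.5; percent free RNA equals the blank-corrected intact/disrupted signal ratio.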

[2] = Particle size and polydispersity index of nanoparticle compositions (Zetasizer Nano ZS); type: physicochemical; details: Table 1c; nanoparticle compositions
Description: A Zetasizer Nano ZS (Malvem Instruments Ltd, Malvem, Worcestershire, UK) can be used to determine the particle size, the polydispersity index (PDI) and the zeta potential of the nanoparticle compositions in 1×PBS in determining particle size and 15 mM PBS in determining zeta potential.

[3] = Lipid purity change after storage in EtOH for 96 h at 25 or 37 °C; type: physicochemical
How it was run: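 Lipid stability was assessed as purity after storage in ethanol for 96 h at 25 °C or 37 °C.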

[4] = pKa of nanoparticle compositions; type: physicochemical; details: Table 1c
[5] = Lipid clearance: % dose remaining in liver of CD-1 mice; type: in vivo; details: intravenous, 0.5 mg/kg, CD-1 mouse, Table 8a
How it was run: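 CD-1 mice, 0.5 mpk dose of test-compound nanoparticle formulation; hEPO protein expression read out; clearance data also recorded.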

Row | EE (%) [1] | PDI [2] | Size (nm) [2] | Lipid % change purity in EtOH, 25° C., 96 h [3] | Lipid % change purity in EtOH, 37° C., 96 h [3] | pKa [4] | % Dose Remaining 24 hr [5] | Compound | AUC (p/s*h) CD-1 mice 0.5 mpk (hEPO expression)
1 | 99.0% | 0.17 | 76.9 nm | 1.5% | 5.7% | 7.25 | 71.45% | CCCCCCCCCN(CCCCCCCCC)CCN(CCCCCCCCC)CC(=O)N1CCC(CCOC(=O)CN(CCCCCCCCC)CCCCCCCCC)C1 (stereo not drawn) [Compound 103, 2-(1-(N-(2-(Dinonylamino)ethyl)-N-nonylglycyl)pyrrolidin-3-yl)ethyl Dinonylglycinate] | 1.82E+08 p/s*h
2 | 96.6% | 0.19 | 80.6 nm | 4% | 3.6% | 6.99 | 38.15% | CC/C=C\COC(=O)CCCN(CCCCCCCCC)CC(=O)N1CCN(C(=O)CN(CCCCCCCCC)CCN(CCCCCCCCC)CCCCCCCCC)CC1 [Compound 107, (Z)-Pent-2-en-1-yl 4-((2-(4-(N-(2-(dinonylamino)ethyl)-N-nonylglycyl)piperazin-1-yl)-2-oxoethyl)(nonyl)amino)butanoate] | 1.76E+08 p/s*h
3 | 95.0% | 0.16 | 75.0 nm | 0% | 4.1% | 7.27 | 0.54% | CCCCCCCCCN(CCCCCCCCC)CCN(CCCCCCCCC)CC(=O)N1CCN(C(=O)CN(CCCCCCCCC)CCCCCOC(=O)OC)CC1 [Compound 109, 5-((2-(4-(N-(2-(Dinonylamino)ethyl)-N-nonylglycyl)piperazin-1-yl)-2-oxoethyl)(nonyl)amino)pentyl methyl carbonate] | 5.56E+07 p/s*h
4 | 97.0% | 0.16 | 66.0 nm | 43.1% | 59.5% | 5.01 | 82.18% | CCCCCCCCCN(CCCCCCCCC)CCN(CCCCCCCCC)CC(=O)OC1CCC(OC(=O)CN(CCCCCCCCC)CCCCCCCCC)CC1 (stereo not drawn) [Compound 115, 4-((N-(2-(Dinonylamino)ethyl)-N-nonylglycyl)oxy)cyclohexyl dinonylglycinate] | 2.31E+06 p/s*h
5 | 98.9% | 0.19 | 77.1 nm | 2.2% | 2% | 6.55 | 6.22% | CCCCCCCCCCCCCCN(CCCCCCCCCCCC(=O)OC)CCC1CCN(C(=O)CN(CCCCCCCCC)CCN(CCCCCCCCC)CCCCCCCCC)CC1 [Compound 116, Methyl 12-((2-(1-(N-(2-(dinonylamino)ethyl)-N-nonylglycyl)piperidin-4-yl)ethyl)(tetradecyl)amino)dodecanoate] | 1.01E+08 p/s*h
6 | 95.2% | 0.20 | 84.6 nm | 2.9% | 4.7% | 6.71 | 2.03% | CCCCCCCCCCCCCCN(CCCCCCCCCCCC(=O)OC)CC(=O)N1CCN(C(=O)CN(CCCCCCCCC)CCN(CCCCCCCCC)CCCCCCCCC)CC1 [Compound 117, Methyl 12-((2-(4-(N-(2-(dinonylamino)ethyl)-N-nonylglycyl)piperazin-1-yl)-2-oxoethyl)(tetradecyl)amino)dodecanoate] | 6.91E+07 p/s*h

The remaining lines, values behind:

Row | Compound | EE (%) [1] | PDI [2] | Size (nm) [2] | Lipid % change purity in EtOH, 25° C., 96 h [3] | Lipid % change purity in EtOH, 37° C., 96 h [3] | pKa [4] | % Dose Remaining 24 hr [5] | AUC (p/s*h) CD-1 mice 0.5 mpk (hEPO expression)
7 | CCCCCCCCCCCCCCN(CCCCCC(=O)OCCCCCCC)CC(=O)N1CCN(C(=O)CN(CCCCCCCCC)CCN(CCCCCCCCC)CCCCCCCCC)CC1 [Compound 91, Heptyl 6-((2-(4-(N-(2-(dinonylamino)ethyl)-N-nonylglycyl)piperazin-1-yl)-2-oxoethyl)(tetradecyl)amino)hexanoate] | 97.6% | 0.21 | 82.9 nm | 1% | 2.3% | 6.74 | 9.19% | 3.22E+07 p/s*h
8 | CCCCCCCCCCCCCCN(CCCOC(=O)CCCCCCCCC)CCC1CCN(C(=O)CN(CCCCCCCCC)CCN(CCCCCCCCC)CCCCCCCCC)CC1 [Compound 92, 3-((2-(1-(N-(2-(Dinonylamino)ethyl)-N-nonylglycyl)piperidin-4-yl)ethyl)(tetradecyl)amino)propyl decanoate] | 97.1% | 0.17 | 73.8 nm | 4.5% | 9% | 6.53 | 0.10% | 8.25E+07 p/s*h
9 | CCCCCCCCCCCCCCN(CCCCCCCC(=O)OCCCCC)CCC1CCN(C(=O)CN(CCCCCCCCC)CCN(CCCCCCCCC)CCCCCCCCC)CC1 [Compound 93, Pentyl 8-((2-(1-(N-(2-(dinonylamino)ethyl)-N-nonylglycyl)piperidin-4-yl)ethyl)(tetradecyl)amino)octanoate] | 97.7% | 0.17 | 75.6 nm | 0% | 2.2% | 6.6 | 10.37% | 8.63E+07 p/s*h
10 | CCCCCCCCCCCCCCN(CCCCCC(=O)OCCCCCCC)CCC1CCN(C(=O)CN(CCCCCCCCC)CCN(CCCCCCCCC)CCCCCCCCC)CC1 [Compound 94, Heptyl 6-((2-(1-(N-(2-(dinonylamino)ethyl)-N-nonylglycyl)piperidin-4-yl)ethyl)(tetradecyl)amino)hexanoate] | 98.4% | 0.20 | 74.6 nm | 5.9% | 8.3% | 6.65 | 18.52% | 2.39E+07 p/s*h
11 | CCCCCCCCCN(CCCCCCCCC)CCN(CCCCCCCCC)CC(=O)N1CCN(C(=O)C(C)N(CCCCCCCCC)CCCC(=O)OCCCCC)CC1 (stereo not drawn) [Compound 111, Pentyl 4-((1-(4-(N-(2-(dinonylamino)ethyl)-N-nonylglycyl)piperazin-1-yl)-1-oxopropan-2-yl)(nonyl)amino)butanoate] | 96.7% | 0.21 | 86.8 nm | 6.3% | 6.5% | 6.82 | 59.89% | 1.75E+08 p/s*h
12 | CCCCCCCCCN(CCCCCCCCC)CCN(CCCCCCCCC)CC(=O)N1CCC(CCOC(=O)CN(CCCCCCCCC)CCCCCCCCC)CC1 [Compound 114, 2-(1-(N-(2-(Dinonylamino)ethyl)-N-nonylglycyl)piperidin-4-yl)ethyl dinonylglycinate] | 98.1% | 0.23 | 77.2 nm | 2.6% | 9% | 6.64 | 38.43% | 7.86E+07 p/s*h
